Among the data in patent publication US10604489B2, “Compounds for the treatment of pain” (priority 2018, dated 2020) are Ki and EC50 values, retold here.

Where a name gives a salt, the structure may show the parent alone.

What is called Ki is a measure of affinity in units of concentration, obtained from inhibition or displacement. A high value points to a looser hold on the target. As usually defined, the EC50 is the concentration needed to bring the measured effect to its halfway point.

One experiment has as its target μ-receptor (Homo sapiens (Human), UniProt P35372). In words: Receptor binding, competitive displacement of [3H]DAMGO. The note with it: 0.25 nM [3H]DAMGO, CHO cell membrane protein, 60 min at 25° C. The protocol:
The Ki (binding affinity) for μ-receptor was determined with a previously described method using a competitive displacement assay (Neumeyer et al., J. Med. Chem., v. 46, p. 5162-5170, 2003). Membrane protein from CHO (Chinese Hamster Ovarian) cells that stably expressed one type of the cloned human opioid receptor were incubated with 12 different concentrations of the compound in the presence of 0.25 nM [3H]DAMGO, 0.2 nM [3H]naltrindole or 1 nM [3H]U69,593 in a final volume of 1 mL of 50 mM Tris-HCl, pH 7.5 at 25° C. Incubation times of 60 min were used for [3H]DAMGO and [3H]U69,593. Because of a slower association of [3H]naltrindole with the receptor, a 3 h incubation was used with this radioligand. Samples incubated with [3H]naltrindole also contained 10 mM MgCl2 and 0.5 mM phenylmethylsulfonyl fluoride. Nonspecific binding was measured by inclusion of 10 μM naloxone. The binding was terminated by filtering the samples through Schleicher & Schuell No. 32 glass fiber filters using a Brandel 48-well cell harvester. The filters were subsequently washed three times with 3 mL of cold 50 mM Tris-HCl, pH 7.5, and were counted in 2 mL Ecoscint A scintillation fluid. For [3H]naltrindole and [3H]U69,593 binding, the filters were soaked in 0.1% polyethylenimine for at least 60 min before use. IC50 values will be calculated by least squares fit to a logarithm-probit analysis. Ki values of unlabelled compounds were calculated from the equation Ki=(IC50)/1+S where S=(concentration of radioligand)/(Kd of radioligand) (Cheng and Prusoff, Biochemical Pharmacology, v. 22, p. 3099-3108, 1973).
In general terms: In a radioligand displacement assay an active substance lowers the binding of a labelled ligand.

The next experiment deals with human μ opioid receptor (Homo sapiens (Human), UniProt P35372). In words: Functional activity ([35S]GTPγS binding). The format is biochemical. The conditions noted are these: [35S]GTPγS 0.080 nM, CHO cell membranes, 60 min at 30° C., filtration. As to the method: The [^35S]GTPγS assay measures the functional properties of a compound by quantifying the level of G-protein activation following agonist binding in studies using stably transfected cells, and is considered to be a measure of the efficacy of a compound. Membranes from CHO (Chinese Hamster Ovary) cells that stably expressed one type of the cloned human opioid receptor human were used in the experiments. In a final volume of 0.5 mL, 12 different concentrations of each test compound were incubated with 7.5 μg of CHO cell membranes that stably expressed the human p opioid receptor. The assay buffer consisted of 50 mM Tris-HCl, pH 7.4, 3 mM MgCl2, 0.2 mM EGTA, 3 μM GDP, and 100 mM NaCl. The final concentration of [35S]GTPγS was 0.080 nM. Nonspecific binding was measured by inclusion of 10 μM GTPγS. Binding was initiated by the addition of the membranes. After an incubation of 60 min at 30° C., the samples were filtered through Schleicher & Schuell No. 32 glass fiber filters. The filters were washed three times with cold 50 mM Tris-HCl, pH 7.5, and were counted in 2 mL of Ecoscint scintillation fluid.
(GTPγS is a poorly hydrolysed GTP analogue; its binding reports G protein activation.)

At μ-receptor, `COC1(c2ccnc(C(N)=O)c2)C2CCCC1CN([C@H]1CC[C@@H]1c1ccccc1)C2` (stereo partly drawn) [Compound 117, 4-((1R,5S,9s)-9-methoxy-3-((1S,2R)-2-phenylcyclobutyl)-3-azabicyclo[3.3.1]nonan-9-yl)picolinamide hydrochloride] showed an inhibition constant (Ki) of 1 to 5 nM. Moreover, the concentration giving a half-maximal response (EC50) on human μ opioid receptor is 10 to 75 nM.

`Cl.[2H]C([2H])([2H])N1CC2CCCC(C1)C2(OC)c1cccc(C(N)=O)c1` [Compound 54, 3-((1R,5S,9r)-9-methoxy-3-(trideuteriomethyl)-3-azabicyclo[3.3.1]nonan-9-yl)benzamide hydrochloride]: on μ-receptor, the Ki is less than 1 nM. The compound further displayed a 50% effective concentration (EC50) on human μ opioid receptor of less than 10 nM.

For the compound `COC1(c2cccc(C(N)=O)c2)C2CCCC1CN(Cc1cnn[nH]1)C2` [Compound 75, 3-((1R,5S,9r)-3-((1H-1,2,3-triazol-5-yl)methyl)-9-methoxy-3-azabicyclo[3.3.1]nonan-9-yl)benzamide hydrochloride], the Ki at μ-receptor is less than 1 nM. On human μ opioid receptor, the EC50 is less than 10 nM.

Turning to `COC1(c2ccnc(C(N)=O)c2)C2CCCC1CN([C@@H]1CCOC1)C2` (stereo partly drawn) [Compound 78, 4-((1R,5S,9s)-9-methoxy-3-((S)-tetrahydrofuran-3-yl)-3-azabicyclo[3.3.1]nonan-9-yl)picolinamide hydrochloride], the Ki at μ-receptor was in the range of 1 to 5 nM. The compound also had an EC50 at human μ opioid receptor of 10 to 75 nM.

`COC1(c2ccnc(C(N)=O)c2)C2CCCC1CN(C1(C)CC1)C2` [Compound 4, 4-((1R,5S,9r)-9-methoxy-3-(1-methylcyclopropyl)-3-azabicyclo[3.3.1]nonan-9-yl)picolinamide hydrochloride]: on μ-receptor, the Ki is more than 5 nM. The compound further gave an EC50 at human μ opioid receptor of more than 75 nM.

The compound `COC1(c2ccnc(C(N)=O)c2)C2CCCC1CN([C@H]1C[C@@H](F)C1)C2` (stereo partly drawn) [Compound 2, 4-((1R,5S,9R)-3-((1s,3S)-3-fluorocyclobutyl)-9-methoxy-3-azabicyclo[3.3.1]nonan-9-yl)picolinamide hydrochloride] registered a Ki on μ-receptor of less than 1 nM. In addition, the 50% effective concentration (EC50) on human μ opioid receptor was 10 to 75 nM.

`COC1(c2ccnc(C(N)=O)c2)C2CCCC1CN(C1CCC1)C2` [Compound 90, 4-((1R,5S,9r)-3-cyclobutyl-9-methoxy-3-azabicyclo[3.3.1]nonan-9-yl)picolinamide hydrochloride]: the Ki on μ-receptor was 1 to 5 nM. At human μ opioid receptor, the EC50 lay within 10 to 75 nM.

`CCOC1(c2cccc(C(N)=O)c2)C2CCCC1CN(CC1CC1)C2` [Compound 30, 3-((1R,5S,9r)-3-(cyclopropylmethyl)-9-ethoxy-3-azabicyclo[3.3.1]nonan-9-yl)benzamide hydrochloride] displayed an inhibition constant Ki on μ-receptor of less than 1 nM. At human μ opioid receptor, this compound had an EC50 of less than 10 nM.

Consider `CCC[C@H](C)N1CC2CCCC(C1)C2(OC)c1ccnc(C(N)=O)c1` (single isomer, unassigned) [Compound 134, hydrochloride], for which, on μ-receptor, the inhibitory constant (Ki) was less than 1 nM. Besides, the 50% effective concentration (EC50) on human μ opioid receptor was in the range of 10 to 75 nM.

`COC1(c2cccc(C(N)=O)c2)C2CCCC1CN([C@H]1CCCOC1)C2.Cl` (single isomer, unassigned) [Compound 140, hydrochloride] came in with an inhibition constant (Ki) at μ-receptor of less than 1 nM. Further, at human μ opioid receptor, the EC50 was in the range of 10 to 75 nM.

As to `COC1(c2ccnc(C(N)=O)c2)C2CCCC1CN(Cc1ccno1)C2` [Compound 124, 4-((1R,5S,9r)-3-(isoxazol-5-ylmethyl)-9-methoxy-3-azabicyclo[3.3.1]nonan-9-yl)picolinamide hydrochloride], at μ-receptor, the inhibition constant (Ki) is more than 5 nM. For the same compound, at human μ opioid receptor, the EC50 was more than 75 nM.

As to `COC1(c2ccc(C(N)=O)s2)C2CCCC1CN(C1CCOCC1)C2` [Compound 71, 5-((1R,5S,9r)-9-methoxy-3-(tetrahydro-2H-pyran-4-yl)-3-azabicyclo[3.3.1]nonan-9-yl)thiophene-2-carboxamide hydrochloride], on μ-receptor, the Ki is more than 5 nM. The 50% effective concentration (EC50) at human μ opioid receptor was more than 75 nM.

At μ-receptor, `COC1(c2cccc(C(N)=O)c2)C2CCCC1CN(CCC(F)(F)F)C2` [Compound 34, 3-((1R,5S,9r)-9-methoxy-3-(3,3,3-trifluoropropyl)-3-azabicyclo[3.3.1]nonan-9-yl)benzamide hydrochloride] yielded an inhibition constant Ki of less than 1 nM. This compound also returned an EC50 on human μ opioid receptor of less than 10 nM.

The compound `CCCCN1CC2CCCC(C1)C2(OC)c1cccc(C(N)=O)c1` [Compound 29, 3-((1R,5S,9r)-3-butyl-9-methoxy-3-azabicyclo[3.3.1]nonan-9-yl)benzamide hydrochloride] registered a Ki at μ-receptor of less than 1 nM. At human μ opioid receptor, this compound gave an EC50 of less than 10 nM.

`CCCN1CC2CCCC(C1)C2(OC)c1cccc(C(N)=O)c1` [Compound 47, 3-((1R,5S,9r)-9-methoxy-3-propyl-3-azabicyclo[3.3.1]nonan-9-yl)benzamide hydrochloride] had an inhibition constant (Ki) at μ-receptor of less than 1 nM. At human μ opioid receptor, this compound returned an EC50 of less than 10 nM.

As for `COC1(c2cccc(C(N)=O)c2O)C2CCCC1CN(C)C2` [Compound 49, 2-hydroxy-3-((1R,5S,9r)-9-methoxy-3-methyl-3-azabicyclo[3.3.1]nonan-9-yl)benzamide hydrochloride], at μ-receptor, the Ki is less than 1 nM. For the same compound, on human μ opioid receptor, the EC50 is less than 10 nM.

`COC1(c2cccc(C(N)=O)c2)C2CCCC1CN(C1CCC3(CC1)COC3)C2` [Compound 3, 3-((1R,5S,9r)-9-methoxy-3-(2-oxaspiro[3.5]nonan-7-yl)-3-azabicyclo[3.3.1]nonan-9-yl)benzamide (S)-2-hydroxysuccinate] gave a Ki at μ-receptor of less than 1 nM. Besides, the EC50 at human μ opioid receptor was less than 10 nM.

`COC1(c2cccc(C(N)=O)c2F)C2CCCC1CN(C)C2` [Compound 39, 2-fluoro-3-((1R,5S,9r)-9-methoxy-3-methyl-3-azabicyclo[3.3.1]nonan-9-yl)benzamide hydrochloride]: the inhibition constant (Ki) at μ-receptor fell in the range of 1 to 5 nM. Besides, the EC50 on human μ opioid receptor lay in the range of 10 to 75 nM.

Turning to `COC1(c2ccnc(C(N)=O)c2)C2CCCC1CN(C1CCOC1)C2` [Compound 74, 4-((1R,5S,9r)-9-methoxy-3-(tetrahydrofuran-3-yl)-3-azabicyclo[3.3.1]nonan-9-yl)picolinamide hydrochloride], at μ-receptor, the inhibition constant Ki fell in the range of 1 to 5 nM. The compound also had a concentration giving a half-maximal response (EC50) on human μ opioid receptor of 10 to 75 nM.

`COC1(c2ccnc(C(N)=O)c2)C2CCCC1CN(C1CC3CCC(C1)O3)C2` [Compound 10, 4-((1R,5S,9R)-3-((1R,3r,5S)-8-oxabicyclo[3.2.1]octan-3-yl)-9-methoxy-3-azabicyclo[3.3.1]nonan-9-yl)picolinamide hydrochloride] yielded an inhibition constant Ki on μ-receptor of more than 5 nM. The compound further returned an EC50 at human μ opioid receptor of more than 75 nM.

With `COC1(c2ccnc(C(N)=O)c2)C2CCCC1CN(C(C)(C)C)C2` [Compound 107, 4-((1R,5S,9r)-3-(tert-butyl)-9-methoxy-3-azabicyclo[3.3.1]nonan-9-yl)picolinamide hydrochloride], at μ-receptor, the Ki lay within 1 to 5 nM. This compound had a 50% effective concentration (EC50) at human μ opioid receptor of more than 75 nM.

In the case of `COC1(c2ccnc(C(N)=O)c2)C2CCCC1CN(C1CC(c3ccccc3)C1)C2` [Compound 89, 4-((1R,5S,9R)-9-methoxy-3-((1s,3S)-3-phenylcyclobutyl)-3-azabicyclo[3.3.1]nonan-9-yl)picolinamide hydrochloride], the Ki on μ-receptor was less than 1 nM. In addition, the concentration for a half-maximal effect (EC50) at human μ opioid receptor was less than 10 nM.

On μ-receptor, `COC1(c2ccnc(C(N)=O)c2F)C2CCCC1CN(C1CC1)C2` [Compound 57, 4-((1R,5S,9r)-3-cyclopropyl-9-methoxy-3-azabicyclo[3.3.1]nonan-9-yl)-3-fluoropicolinamide hydrochloride] registered a Ki of more than 5 nM. Further, on human μ opioid receptor, the EC50 is more than 75 nM.
